As a reminder, the CC50 is the concentration that lowers cell viability or growth by half.

Where two headings read alike, the source gives them in different places.

Holding throughout (assay type): cell-based, human
For data set [1], the system named is MDA-MB-231 cells. The data set is described as follows: MTS viability assay, MDA-MB-231 breast cancer cells. As for the experimental part:
FIG. 2A. Effects of compounds 1-11 on the viability of MDA-MB231 cells. MDA-MB-231 cells were cultured in DMEM medium supplemented with 10% FBS. Equal numbers were dispersed into 96-well plates. After 24 h, the cells were incubated with compounds 1-11 (0-30 μM) for 48 h. At the end of the incubation, MTS reagent (20% vol/vol) was added and the plates were incubated for 1-4 h. The OD490 was read with a plate reader. Wells with media but no cells were treated in similar fashion and the values utilized as blank. The results represent the mean±standard deviation of 6 independent determinations.
(§1) FIG. 2K. Effects of compounds 1, 69-72 on the viability of MDA-MB-231 cells. MDA-MB-231 cells were cultured in DMEM medium supplemented with 10% FBS. Equal numbers were dispersed into 96-well plates. After 24 h, the cells were incubated with compounds 1, 69-72 for 48 h. At the end of the incubation, MTS reagent (20% vol/vol) was added and the plates were incubated for 1-4 h. The OD490 was read with a plate reader. Wells with media but no cells were treated in similar fashion and the values utilized as blank. The results represent the mean±standard deviation of 6 independent determinations.
(§2) The cell lines were cultured from frozen stocks originally obtained from ATCC. MDA-MB-231, JIMT-1, DU145, U81, U251 cells were grown in DMEM medium. BT474, A2780s, A2780cp cells were grown in DMEM/F12 medium supplemented with 10% FBS. MiaPaCa2 was cultured in DMEM supplemented with 10% FBS and 2.5% horse serum. PC3 cells were cultured in F12K medium supplemented with 10% FBS. All the media were supplemented with penicillin/streptomycin.
(§3) The effects of the GAELs on the viability of the various epithelial cancer cell lines was determined as previously described. Briefly, equal numbers of the cells were dispersed into 96-well plates. After 24 h, the cells were incubated with the compounds (0-30 μM) for 48 h. At the end of the incubation, MTS reagent (20% vol/vol) was added and the plates were incubated for 1-4 h. The OD490 was read with a plate reader. Wells with media but no cells were treated in similar fashion and the values utilized as blank. The results represent the mean±standard deviation of 6 independent determinations.
In general terms: Formazan colour is commonly taken as a measure of viable cells.

In data set [2] the test system is DU145 cells. The data set is described as follows: MTS viability assay, DU145 prostate cancer cells. As for the experimental part: (§4) FIG. 2D. Effects of compounds 1-11 on the viability of DU145 cells. DU145 cells were cultured in DMEM medium supplemented with 10% FBS. Equal numbers were dispersed into 96-well plates. After 24 h, the cells were incubated with compounds 1-11 (0-30 μM) for 48 h. At the end of the incubation, MTS reagent (20% vol/vol) was added and the plates were incubated for 1-4 h. The OD490 was read with a plate reader. Wells with media but no cells were treated in similar fashion and the values utilized as blank. The results represent the mean±standard deviation of 6 independent determinations.
FIG. 2H. Effect of compounds 1, 69-72 on the viability of DU145 cells. DU145 cells were cultured in DMEM medium supplemented with 10% FBS. Equal numbers were dispersed into 96-well plates. After 24 h, the cells were incubated with compounds 1, 69-72 for 48 h. At the end of the incubation, MTS reagent (20% vol/vol) was added and the plates were incubated for 1-4 h. The OD490 was read with a plate reader. Wells with media but no cells were treated in similar fashion and the values utilized as blank. The results represent the mean±standard deviation of 6 independent determinations.
as §2, §3

Data set [3] deals with JIMT-1 cells. The data set is described as follows: MTS viability assay, JIMT-1 breast cancer cells. As for the experimental part: FIG. 2B. Effects of compounds 1-11 on the viability of JIMT-1 cells. JIMT-1 cells were cultured in DMEM medium supplemented with 10% FBS. Equal numbers were dispersed into 96-well plates. After 24 h, the cells were incubated with compounds 1-11 (0-30 μM) for 48 h. At the end of the incubation, MTS reagent (20% vol/vol) was added and the plates were incubated for 1-4 h. The OD490 was read with a plate reader. Wells with media but no cells were treated in similar fashion and the values utilized as blank. The results represent the mean±standard deviation of 6 independent determinations.
FIG. 2J. Effects of compounds 1, 69-72 on the viability of JIMT-1 cells. JIMT-1 cells were cultured in DMEM medium supplemented with 10% FBS. Equal numbers were dispersed into 96-well plates. After 24 h, the cells were incubated with compounds 1, 69-72 for 48 h. At the end of the incubation, MTS reagent (20% vol/vol) was added and the plates were incubated for 1-4 h. The OD490 was read with a plate reader. Wells with media but no cells were treated in similar fashion and the values utilized as blank. The results represent the mean±standard deviation of 6 independent determinations.
as §2, §3

Data set [4] deals with MiaPaCa2 cells. Put plainly: MTS viability assay, MiaPaCa2 pancreas cancer cells. As to the method:
as §4, with “2F.” for “2D.”, “MiaPaCa2” for “DU145”, “FBS and 2.5% horse serum.” for “FBS.”
as §1, with “2I.” for “2K.”, “MiaPaCa2” for “MDA-MB-231”, “FBS and 2.5% horse serum.” for “FBS.”
as §2, §3

Data set [5] has as its system PC3 cells. The data set is described as follows: MTS viability assay, PC3 prostate cancer cells. As to conditions: 48 h, MTS; for CC50: Table 1A, read-out: CC50 values PC3; for CC90: Table 1B, read-out: CC90 values PC3. As for the experimental part: FIG. 2E. Effects of compounds 1-11 on the viability of PC3 cells. PC3 cells were cultured in F12K medium supplemented with 10% FBS. Equal numbers were dispersed into 96-well plates. After 24 h, the cells were incubated with compounds 1-11 (0-30 μM) for 48 h. At the end of the incubation, MTS reagent (20% vol/vol) was added and the plates were incubated for 1-4 h. The OD490 was read with a plate reader. Wells with media but no cells were treated in similar fashion and the values utilized as blank. The results represent the mean±standard deviation of 6 independent determinations.
as §2, §3

Data set [6] relates to BT-474 cells. Put plainly: MTS viability assay, BT-474 breast cancer cells. As to conditions: 48 h, MTS; for CC50: Table 1A, read-out: CC50 values BT474; for CC90: Table 1B, read-out: CC90 values BT474. As to the method:
FIG. 2C. Effects of compounds 1-11 on the viability of BT-474 cells. BT-474 cells were cultured in DMEM/F12 medium supplemented with 10% FBS. Equal numbers were dispersed into 96-well plates. After 24 h, the cells were incubated with compounds 1-11 (0-30 μM) for 48 h. At the end of the incubation, MTS reagent (20% vol/vol) was added and the plates were incubated for 1-4 h. The OD490 was read with a plate reader. Wells with media but no cells were treated in similar fashion and the values utilized as blank. The results represent the mean±standard deviation of 6 independent determinations.
as §2, §3

Setting [7] is: Table 1A, 48 h, read-out: CC50 values MD 231.
Where [8] appears, read: Table 1B, 48 h, read-out: CC90 values MD 231.
Where [9] appears, read: Table 1A, 48 h, read-out: CC50 values DU 145.
The mark [10] stands for this setting: Table 1B, 48 h, read-out: CC90 values DU 145.
[11] abbreviates: Table 1A, 48 h, read-out: CC50 values JIMT1.
Setting [12] is: Table 1B, 48 h, read-out: CC90 values JIMT1.
[13] abbreviates: Table 1A, 48 h, read-out: CC50 values MiaPaCa2.
Setting [14] is: Table 1B, 48 h, read-out: CC90 values MiaPaCa2.
Where [15] appears, read: Table 5, 48 h, read-out: CC50 MDA-MB-231.
Where [16] appears, read: Table 5, 48 h, read-out: CC90 MDA-MB-231.
[17] abbreviates: Table 5, 48 h, read-out: CC50 DU-145.
The mark [18] stands for this setting: Table 5, 48 h, read-out: CC90 DU-145.
Setting [19] is: Table 5, 48 h, read-out: CC50 JIMT1.
Setting [20] is: Table 5, 48 h, read-out: CC90 JIMT1.
[21] abbreviates: Table 5, 48 h, read-out: CC50 Mlapaca2.
The mark [22] stands for this setting: Table 5, 48 h, read-out: CC90 Mlapaca2.

As to `CCCCCCCCCCCCCCCCOC[C@H](CO[C@H]1O[C@H](CN)[C@@H](O)[C@H](O)[C@H]1N1C(=O)c2ccccc2C1=O)OC` [Compound 3, 1-O-Hexadecyl-2-O-methyl-3-O-(-2′-N-phthalimido-6′-amino-2′,6′-dideoxy-δ-D-glucopyranosyl)-sn-glycerol], the cytotoxic concentration (CC50) in data set [1] (setting [7]) is 20 µM; in data set [2] (setting [9]) it was above 30 µM; in data set [3] (setting [11]) it was above 30 µM; in data set [4] (setting [13]), above 30 µM; in data set [5], 15 µM. Also, the CC90 in data set [1] (setting [8]) was above 30 µM; in data set [2] (setting [10]), above 30 µM; in data set [3] (setting [12]), above 30 µM; in data set [4] (setting [14]), above 30 µM; in data set [5], 30 µM.
Take `CCCCCCCCCCCCCCCCOC[C@@H](CN)O[C@H]1O[C@H](CO)[C@@H](O)[C@H](O)[C@H]1N` [Compound 7, 1-O-Hexadecyloxy-2R-(2′-amino-2′-deoxy-α-D-glucopyranosyl)-3-amino glycerol]: the CC50 was 12 µM in data set [1] (setting [7]); 17.5 µM in data set [2] (setting [9]); 14 µM in data set [3] (setting [11]); 15 µM in data set [4] (setting [13]); 9.5 µM in data set [5]; 25 µM in data set [6]. Further, the CC90 in data set [1] (setting [8]) was 17.5 µM; in data set [2] (setting [10]), 25 µM; in data set [3] (setting [12]), 19 µM; in data set [4] (setting [14]) it was 28 µM; in data set [5], 17 µM; in data set [6] it was above 30 µM.
As to `CCCCCCCCCCCCCCCCOCC(N)CO[C@H]1O[C@H](CO)[C@@H](O)[C@H](O)[C@H]1N` (stereo partly drawn) [Compound 8, 1-O-Hexadecyloxy-2S/R-amino-3-(-2′-amino-2′-deoxy-α-D-glucopyranosyl)-glycerol], the CC50 in data set [1] (setting [7]) turned out to be 6 µM; in data set [2] (setting [9]), 6 µM; in data set [3] (setting [11]) it was 5.5 µM; in data set [4] (setting [13]), 8.5 µM; in data set [5], 9 µM; in data set [6] it was 15.5 µM. The CC90 in data set [1] (setting [8]) was 9 µM; in data set [2] (setting [10]), 9 µM; in data set [3] (setting [12]), 7.5 µM; in data set [4] (setting [14]), 14 µM; in data set [5], 14 µM; in data set [6], 28 µM.
As for `CCCCCCCCCCCCCCCCOC[C@H](CO[C@H]1O[C@@H](CN)[C@H](OCc2ccccc2)[C@@H](O)[C@@H]1N)OC` [Compound 70, 1-O-Hexadecyl-2-O-methyl-3-O-(4′-benzyl-2′,6′-diamino-2′,6′-dideoxy-β-L-glucopyranosyl)-sn-glycerol], the CC50 was determined as 4 µM in data set [1] (setting [15]), 3.6 µM in data set [2] (setting [17]), 2 µM in data set [3] (setting [19]) and 5 µM in data set [4] (setting [21]). The CC90 in data set [1] (setting [16]) is 4.9 µM; in data set [2] (setting [18]), 4.9 µM; in data set [3] (setting [20]) it was 3.5 µM; in data set [4] (setting [22]), 7.1 µM.
As for `CCCCCCCCCCCCCCCCOC[C@H](CO[C@@H]1O[C@@H](CN)[C@H](O)[C@@H](O)[C@@H]1N)OC` [Compound 71, 1-O-Hexadecyl-2-O-methyl-3-O-(2′,6′-diamino-2′,6′-dideoxy-α-L-glucopyranosyl)-sn-glycerol], the CC50 was determined as 5.5 µM in data set [1] (setting [15]), 6 µM in data set [2] (setting [17]), 4 µM in data set [3] (setting [19]) and 6 µM in data set [4] (setting [21]). Moreover, the CC90 in data set [1] (setting [16]) came out at 7.5 µM; in data set [2] (setting [18]) it was 8 µM; in data set [3] (setting [20]) it was 6.5 µM; in data set [4] (setting [22]) it was 15 µM.
On to `CCCCCCCCCCCCCCCCOC[C@H](CO[C@@H]1O[C@@H](CN)[C@H](OCc2ccccc2)[C@@H](O)[C@@H]1N)OC` [Compound 72, 1-O-Hexadecyl-2-O-methyl-3-O-(4′-benzyl-2′,6′-diamino-2′,6′-dideoxy-α-L-glucopyranosyl)-sn-glycerol], for which the CC50 was 4 µM in data set [1] (setting [15]), 3.6 µM in data set [2] (setting [17]), 2 µM in data set [3] (setting [19]) and 4.5 µM in data set [4] (setting [21]). Besides, the CC90 in data set [1] (setting [16]) is 4.9 µM; in data set [2] (setting [18]), 4.9 µM; in data set [3] (setting [20]), 3.5 µM; in data set [4] (setting [22]), 7 µM.

Values taken from patent publication US10806746B2, “Di- and tri-cationic glycosylated antitumor ether lipids, L-gucosylated gaels and rhamnose-linked gaels as cytotoxic agents against epithelial cancer cells and cancer stem cells” (The University of Manitoba, priority 2014, dated 2020).
